The values that follow come from patent publication US12258327B2, “5-membered heteroaryl-containing aminopyridine compounds as EGFR inhibitors” (YUHAN CORPORATION, priority 2021, dated 2025).

One assay addresses EGFR L858R/T790M/C797S (Homo sapiens, UniProt P00533, C797S/L858R/T790M). Put plainly: Biochemical EGFR kinase assay (Lance Ultra TR-FRET), triple mutant L858R/T790M/C797S. The method, boiled down:
(§1)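 Enzyme reactions lasted 1 hour at room temperature with test compounds between 0.003 and 10 μM, followed by 10 mM EDTA quench.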
A general note: TR-FRET usually uses a lanthanide donor and a delayed reading to cut background.

For a further assay, the target named is EGFR wildtype (WT) (Homo sapiens, UniProt P00533). Put plainly: Biochemical EGFR kinase assay (Lance Ultra TR-FRET), wildtype. The method, boiled down:
as §1

Another assay deals with EGFR del19/C797S (Homo sapiens, UniProt P00533, C797S/DEL746-750). Put plainly: Biochemical EGFR kinase assay (Lance Ultra TR-FRET), double mutant del19/C797S. The method, boiled down: as §1
Chain of EGFR del19/C797S (P00533 with tags, fused parts or gaps DEL746-750/C797S): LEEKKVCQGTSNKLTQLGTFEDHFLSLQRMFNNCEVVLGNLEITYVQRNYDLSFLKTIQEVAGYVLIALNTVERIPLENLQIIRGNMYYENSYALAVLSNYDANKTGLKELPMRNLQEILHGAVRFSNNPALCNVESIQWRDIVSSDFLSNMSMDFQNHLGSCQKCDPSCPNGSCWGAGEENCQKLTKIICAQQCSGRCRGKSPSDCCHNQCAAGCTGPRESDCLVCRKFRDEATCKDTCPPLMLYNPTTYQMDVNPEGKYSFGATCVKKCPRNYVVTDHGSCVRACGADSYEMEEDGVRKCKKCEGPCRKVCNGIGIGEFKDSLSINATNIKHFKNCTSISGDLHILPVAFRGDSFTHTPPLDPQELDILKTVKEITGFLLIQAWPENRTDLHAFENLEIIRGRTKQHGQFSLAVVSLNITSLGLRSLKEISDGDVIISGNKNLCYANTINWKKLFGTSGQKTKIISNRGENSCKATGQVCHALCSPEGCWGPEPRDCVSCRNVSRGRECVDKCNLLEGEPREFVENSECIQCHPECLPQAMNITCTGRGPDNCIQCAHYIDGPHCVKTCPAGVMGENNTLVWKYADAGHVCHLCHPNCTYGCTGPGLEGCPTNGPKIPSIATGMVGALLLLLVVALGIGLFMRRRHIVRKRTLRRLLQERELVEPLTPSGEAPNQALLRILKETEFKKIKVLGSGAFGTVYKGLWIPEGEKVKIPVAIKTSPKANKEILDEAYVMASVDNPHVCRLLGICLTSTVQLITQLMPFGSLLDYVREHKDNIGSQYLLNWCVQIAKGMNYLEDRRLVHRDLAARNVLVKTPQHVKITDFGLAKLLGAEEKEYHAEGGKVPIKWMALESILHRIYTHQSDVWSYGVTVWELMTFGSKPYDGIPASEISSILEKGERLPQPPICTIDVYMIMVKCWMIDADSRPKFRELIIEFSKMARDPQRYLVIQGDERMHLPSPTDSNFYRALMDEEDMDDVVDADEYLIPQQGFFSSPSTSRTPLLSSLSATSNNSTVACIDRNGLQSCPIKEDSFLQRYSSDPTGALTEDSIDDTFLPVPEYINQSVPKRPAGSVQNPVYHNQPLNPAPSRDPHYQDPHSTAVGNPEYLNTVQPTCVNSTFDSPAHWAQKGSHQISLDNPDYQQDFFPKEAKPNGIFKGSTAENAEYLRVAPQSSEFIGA
A further assay deals with EGFR del19/T790M/C797S (Homo sapiens, UniProt P00533, C797S/DEL746-750/T790M). Put plainly: Biochemical EGFR kinase assay (Lance Ultra TR-FRET), triple mutant del19/T790M/C797S. The method, boiled down: as §1
Chain of EGFR del19/T790M/C797S (P00533 with tags, fused parts or gaps DEL746-750/T790M/C797S): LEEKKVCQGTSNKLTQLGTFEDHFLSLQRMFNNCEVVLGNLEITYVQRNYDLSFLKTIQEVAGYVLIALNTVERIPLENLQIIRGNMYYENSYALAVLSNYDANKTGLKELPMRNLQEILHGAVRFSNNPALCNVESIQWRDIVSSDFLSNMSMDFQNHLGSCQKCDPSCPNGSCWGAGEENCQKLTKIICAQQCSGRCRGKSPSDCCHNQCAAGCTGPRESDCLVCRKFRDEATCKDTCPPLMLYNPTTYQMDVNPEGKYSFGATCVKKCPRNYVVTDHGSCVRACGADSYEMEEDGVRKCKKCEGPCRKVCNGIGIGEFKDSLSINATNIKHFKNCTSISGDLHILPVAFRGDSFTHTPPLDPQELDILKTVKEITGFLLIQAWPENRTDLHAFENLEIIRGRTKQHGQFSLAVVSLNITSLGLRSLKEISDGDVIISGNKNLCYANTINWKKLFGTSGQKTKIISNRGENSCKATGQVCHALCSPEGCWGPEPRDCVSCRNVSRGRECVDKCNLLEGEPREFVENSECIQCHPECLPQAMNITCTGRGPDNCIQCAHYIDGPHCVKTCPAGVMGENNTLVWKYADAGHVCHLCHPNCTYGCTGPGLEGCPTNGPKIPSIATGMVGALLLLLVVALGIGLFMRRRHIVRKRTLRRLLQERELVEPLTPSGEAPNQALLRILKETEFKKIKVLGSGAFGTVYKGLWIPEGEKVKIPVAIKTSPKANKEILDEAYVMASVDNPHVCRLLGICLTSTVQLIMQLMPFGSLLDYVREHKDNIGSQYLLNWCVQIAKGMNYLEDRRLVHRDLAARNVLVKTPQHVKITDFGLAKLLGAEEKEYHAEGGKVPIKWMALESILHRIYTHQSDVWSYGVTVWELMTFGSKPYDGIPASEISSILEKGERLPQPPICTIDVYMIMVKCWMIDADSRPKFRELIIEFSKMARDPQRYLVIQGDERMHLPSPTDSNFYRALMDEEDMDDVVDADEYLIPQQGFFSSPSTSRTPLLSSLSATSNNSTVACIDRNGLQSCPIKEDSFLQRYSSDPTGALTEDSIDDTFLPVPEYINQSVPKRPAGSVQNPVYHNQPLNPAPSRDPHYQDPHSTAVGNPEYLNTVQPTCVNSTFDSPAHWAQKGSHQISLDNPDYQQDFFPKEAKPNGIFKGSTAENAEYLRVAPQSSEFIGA
The target of a further assay is EGFR L858R/C797S (Homo sapiens, UniProt P00533, C797S/L858R). In words: Biochemical EGFR kinase assay (Lance Ultra TR-FRET), double mutant L858R/C797S. The method, boiled down: as §1
Chain of EGFR L858R/C797S (P00533 25-1210 C797S/L858R): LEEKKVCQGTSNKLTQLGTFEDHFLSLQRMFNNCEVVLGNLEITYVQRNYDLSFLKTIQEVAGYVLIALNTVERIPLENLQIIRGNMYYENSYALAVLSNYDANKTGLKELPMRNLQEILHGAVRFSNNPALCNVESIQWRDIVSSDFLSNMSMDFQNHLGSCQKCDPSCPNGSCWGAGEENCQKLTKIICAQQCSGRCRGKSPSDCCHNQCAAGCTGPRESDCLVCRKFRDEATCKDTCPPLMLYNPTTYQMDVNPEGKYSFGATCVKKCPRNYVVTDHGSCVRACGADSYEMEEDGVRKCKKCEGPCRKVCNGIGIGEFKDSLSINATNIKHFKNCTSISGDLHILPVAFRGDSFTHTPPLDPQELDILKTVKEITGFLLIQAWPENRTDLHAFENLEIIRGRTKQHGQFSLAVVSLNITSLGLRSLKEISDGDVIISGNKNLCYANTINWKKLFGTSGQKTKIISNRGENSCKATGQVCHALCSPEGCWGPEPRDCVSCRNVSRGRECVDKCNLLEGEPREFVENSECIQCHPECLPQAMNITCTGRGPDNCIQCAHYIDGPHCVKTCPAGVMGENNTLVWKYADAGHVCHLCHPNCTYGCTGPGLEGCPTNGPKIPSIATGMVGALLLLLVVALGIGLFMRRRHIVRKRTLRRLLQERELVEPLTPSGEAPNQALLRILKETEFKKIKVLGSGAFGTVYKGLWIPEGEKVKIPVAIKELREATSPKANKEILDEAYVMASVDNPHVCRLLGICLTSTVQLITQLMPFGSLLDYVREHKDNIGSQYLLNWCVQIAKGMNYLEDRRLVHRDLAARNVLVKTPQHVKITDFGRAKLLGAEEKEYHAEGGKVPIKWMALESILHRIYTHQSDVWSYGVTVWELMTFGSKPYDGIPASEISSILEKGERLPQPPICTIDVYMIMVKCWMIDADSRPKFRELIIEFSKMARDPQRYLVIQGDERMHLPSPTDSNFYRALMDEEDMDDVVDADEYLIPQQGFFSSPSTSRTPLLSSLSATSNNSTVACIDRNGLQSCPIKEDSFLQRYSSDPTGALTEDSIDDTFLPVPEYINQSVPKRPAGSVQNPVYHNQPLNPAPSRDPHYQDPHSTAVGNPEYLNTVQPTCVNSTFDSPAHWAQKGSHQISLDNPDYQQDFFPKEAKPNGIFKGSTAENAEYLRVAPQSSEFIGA
Where [1] appears, read: Km ATP, read-out: IC50 L858R/T790M/C797S (nM) Km ATP.
The mark [2] stands for this setting: Km ATP, read-out: IC50 WT (nM) Km ATP.
Where [3] appears, read: Km ATP, read-out: IC50 del19/C797S (nM) Km ATP.
Setting [4] is: Km ATP, read-out: IC50 del19/T790M/C797S (nM) Km ATP.
Where [5] appears, read: Km ATP, read-out: IC50 L858R/C797S (nM) Km ATP.
Where [6] appears, read: IC50 WT (nM) 100 μM ATP, 100 μM ATP.
[7] abbreviates: IC50 del19/C797S (nM) 100 μM ATP, 100 μM ATP.
Setting [8] is: IC50 L858R/C797S (nM) 100 μM ATP, 100 μM ATP.
Setting [9] is: IC50 L858R/T790M/C797S (nM) 100 μM ATP, 100 μM ATP.
The mark [10] stands for this setting: IC50 del19/T790M/C797S (nM) 100 μM ATP, 100 μM ATP.
Setting [11] is: Km ATP, read-out: IC50 L858R/T790M/C797S, Km ATP.
[12] abbreviates: Km ATP, read-out: IC50 WT, Km ATP.
Where [13] appears, read: Km ATP, read-out: IC50 del19/C797S, Km ATP.
Setting [14] is: Km ATP, read-out: IC50 del19/T790M/C797S, Km ATP.
Where [15] appears, read: Km ATP, read-out: IC50 L858R/C797S, Km ATP.

Structures are written as SMILES. Like-named read-outs stand apart in the source and are kept apart here.

Chain of EGFR L858R/T790M/C797S (P00533 25-1210 T790M/C797S/L858R): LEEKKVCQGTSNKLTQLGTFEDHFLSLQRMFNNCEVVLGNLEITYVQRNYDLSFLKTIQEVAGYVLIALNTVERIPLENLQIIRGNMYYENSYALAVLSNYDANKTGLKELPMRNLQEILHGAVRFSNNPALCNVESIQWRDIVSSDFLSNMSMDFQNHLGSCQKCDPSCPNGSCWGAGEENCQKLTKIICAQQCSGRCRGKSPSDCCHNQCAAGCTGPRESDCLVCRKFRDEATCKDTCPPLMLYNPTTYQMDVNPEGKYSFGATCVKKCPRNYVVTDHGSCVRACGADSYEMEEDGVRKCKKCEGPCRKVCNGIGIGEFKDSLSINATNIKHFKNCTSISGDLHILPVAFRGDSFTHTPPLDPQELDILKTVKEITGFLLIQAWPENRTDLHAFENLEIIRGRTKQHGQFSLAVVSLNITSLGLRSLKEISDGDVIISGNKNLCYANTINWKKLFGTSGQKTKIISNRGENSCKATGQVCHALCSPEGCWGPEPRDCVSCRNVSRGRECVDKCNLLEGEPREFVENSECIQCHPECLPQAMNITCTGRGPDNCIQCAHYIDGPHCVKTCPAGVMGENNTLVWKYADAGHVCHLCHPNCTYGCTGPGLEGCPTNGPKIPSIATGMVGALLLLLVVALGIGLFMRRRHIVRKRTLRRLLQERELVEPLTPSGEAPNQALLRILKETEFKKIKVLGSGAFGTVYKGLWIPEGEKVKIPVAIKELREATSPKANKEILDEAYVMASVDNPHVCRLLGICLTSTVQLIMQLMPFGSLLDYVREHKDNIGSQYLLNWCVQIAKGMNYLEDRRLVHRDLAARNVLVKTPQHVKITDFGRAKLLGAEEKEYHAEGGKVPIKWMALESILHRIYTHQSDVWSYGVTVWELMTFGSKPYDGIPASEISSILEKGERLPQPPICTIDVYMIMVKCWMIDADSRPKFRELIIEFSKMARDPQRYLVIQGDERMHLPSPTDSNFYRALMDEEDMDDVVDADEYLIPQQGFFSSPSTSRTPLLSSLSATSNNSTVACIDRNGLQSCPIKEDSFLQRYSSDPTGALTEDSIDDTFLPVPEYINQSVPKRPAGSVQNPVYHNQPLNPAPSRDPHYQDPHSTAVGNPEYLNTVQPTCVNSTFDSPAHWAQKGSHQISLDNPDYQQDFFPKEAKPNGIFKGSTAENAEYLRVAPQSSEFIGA

For the molecule `O=S(=O)(C1CC1)n1cc(-c2nccc(Nc3cc(N[C@H]4CC[C@@H](F)CC4)c(-c4nc(C(F)F)cs4)cn3)n2)cn1` [Example 164, N^2-(2-(1-(Cyclopropylsulfonyl)-1H-pyrazol-4-yl)pyrimidin-4-yl)-5-(4-(difluoromethyl)thiazol-2-yl)-N^4-((1s,4s)-4-fluorocyclohexyl)pyridine-2,4-diamine], the IC50 at EGFR L858R/T790M/C797S (setting [1]) is 4.8 nM; on EGFR wildtype (WT) (setting [2]), 1210 nM; at EGFR del19/C797S (setting [3]), 370 nM; at EGFR del19/T790M/C797S (setting [4]), 8.8 nM; on EGFR L858R/C797S (setting [5]) it was 135 nM.

Turning to `O=S(=O)(C1CC1)n1cc(-c2nccc(Nc3cc(N[C@H]4CC[C@](O)(CO)CC4)c(-c4csc(N5CCOCC5)n4)cn3)n2)cn1` [Example 125, (1s,4s)-4-((2-((2-(1-(Cyclopropylsulfonyl)-1H-pyrazol-4-yl)pyrimidin-4-yl)amino)-5-(2-morpholinothiazol-4-yl)pyridin-4-yl)amino)-1-(hydroxymethyl)cyclohexan-1-ol], the IC50 is 0.4 nM on EGFR L858R/T790M/C797S (setting [1]); greater than 10000 nM against EGFR wildtype (WT) (setting [6]); 144 nM at EGFR wildtype (WT) (setting [2]); 18.5 nM at EGFR del19/C797S (setting [7]); 20.4 nM at EGFR del19/C797S (setting [3]); 0.7 nM at EGFR del19/T790M/C797S (setting [4]). The figures for the IC50 at EGFR L858R/C797S (setting [8]) and on EGFR L858R/C797S (setting [5]) were 218 nM and 10.8 nM, respectively.

As to `Cn1ccc(-c2cnc(Nc3ccnc(-c4cnn(S(=O)(=O)C5CC5)c4)n3)cc2N[C@H]2CC[C@@H](NCCF)CC2)n1` [Example 43, N^2-(2-(1-(Cyclopropylsulfonyl)-1H-pyrazol-4-yl)pyrimidin-4-yl)-N^4-((1s,4s)-4-((2-fluoroethyl)amino)cyclohexyl)-5-(1-methyl-1H-pyrazol-3-yl)pyridine-2,4-diamine], the IC50 against EGFR L858R/T790M/C797S (setting [9]) was determined as 0.3 nM; on EGFR L858R/T790M/C797S (setting [1]), 0.1 nM; against EGFR wildtype (WT) (setting [6]), 5240 nM; at EGFR wildtype (WT) (setting [2]), 4.9 nM; on EGFR del19/C797S (setting [3]), 0.7 nM; at EGFR del19/T790M/C797S (setting [10]), 0.3 nM. Moreover, the figures for the IC50 on EGFR del19/T790M/C797S (setting [4]), against EGFR L858R/C797S (setting [8]) and on EGFR L858R/C797S (setting [5]) were 0.2 nM, 14.7 nM and 0.4 nM, respectively.

Turning to `Cn1nc(-c2cnc(Nc3ccnc(-c4cnn(CC(F)F)c4)n3)cc2N[C@H]2CC[C@@](C)(O)CC2)cc1C(F)(F)F` [Example 331, (1s,4s)-4-((2-((2-(1-(2,2-Difluoroethyl)-1H-pyrazol-4-yl)pyrimidin-4-yl)amino)-5-(1-methyl-5-(trifluoromethyl)-1H-pyrazol-3-yl)pyridin-4-yl)amino)-1-methylcyclohexan-1-ol], the IC50 turned out to be 2.6 nM on EGFR L858R/T790M/C797S (setting [11]); 142 nM at EGFR wildtype (WT) (setting [12]); 11.9 nM at EGFR del19/C797S (setting [13]); 2.3 nM on EGFR del19/T790M/C797S (setting [14]); 6.8 nM on EGFR L858R/C797S (setting [15]).

On to `CC1(O)CCC(Nc2cc(Nc3ccnc(N4CCC(O)C(F)(F)C4)n3)ncc2-c2ccn(C(F)F)n2)CC1` (stereo not shown) [Example 348, 1-(4-((5-(1-(Difluoromethyl)-1H-pyrazol-3-yl)-4-(((1s,4s)-4-hydroxy-4-methylcyclohexyl)amino)pyridin-2-yl)amino)pyrimidin-2-yl)-3,3-difluoropiperidin-4-ol], for which the IC50 is 0.6 nM at EGFR L858R/T790M/C797S (IC50 L858R/T790M/C797S, 100 μM ATP); 0.2 nM on EGFR L858R/T790M/C797S (setting [11]); greater than 10000 nM on EGFR wildtype (WT) (IC50 WT, 100 μM ATP); 145 nM at EGFR wildtype (WT) (setting [12]); 134 nM against EGFR del19/C797S (IC50 del19/C797S, 100 μM ATP); 134 nM at EGFR del19/C797S (setting [13]). The IC50 amounted to 3.5 nM against EGFR del19/T790M/C797S (IC50 del19/T790M/C797S, 100 μM ATP); 0.5 nM at EGFR del19/T790M/C797S (setting [14]); 149 nM on EGFR L858R/C797S (IC50 L858R/C797S, 100 μM ATP); 14.6 nM at EGFR L858R/C797S (setting [15]).

For the molecule `CN(C)CCNC1CCC(Nc2cc(Nc3ccnc(-c4cnn(S(=O)(=O)C5CC5)c4)n3)ncc2-c2ccn(C(F)F)n2)CC1` (stereo not shown) [Example 99, N^2-(2-(1-(cyclopropylsulfonyl)-1H-pyrazol-4-yl)pyrimidin-4-yl)-5-(1-(difluoromethyl)-1H-pyrazol-3-yl)-N4-(4-((2-(dimethylamino)ethyl)amino)cyclohexyl)pyridine-2,4-diamine], the IC50 amounted to 0.8 nM against EGFR L858R/T790M/C797S (setting [9]); 612 nM against EGFR wildtype (WT) (setting [6]); 1.7 nM at EGFR del19/C797S (setting [7]); 0.5 nM against EGFR del19/T790M/C797S (setting [10]); 4.8 nM against EGFR L858R/C797S (setting [8]).

Turning to `COCn1ccc(-c2cnc(Nc3ccnc(-c4cnn(S(=O)(=O)C5CC5)c4)c3)nc2N[C@H]2CC[C@@](C)(O)CC2)n1` [Example 358, (1s,4s)-4-((2-((2-(1-(Cyclopropylsulfonyl)-1H-pyrazol-4-yl)pyridin-4-yl)amino)-5-(1-(methoxymethyl)-1H-pyrazol-3-yl)pyrimidin-4-yl)amino)-1-methylcyclohexan-1-ol], the IC50 on EGFR L858R/T790M/C797S (setting [11]) turned out to be 0.3 nM; on EGFR wildtype (WT) (setting [12]) it was 39.6 nM; on EGFR del19/C797S (setting [13]) it was 2.3 nM; on EGFR del19/T790M/C797S (setting [14]), 0.2 nM; on EGFR L858R/C797S (setting [15]), 3.7 nM.

As for `O=S(=O)(C1CC1)n1cc(-c2nccc(Nc3cc(NC4CCCC(F)C4)c(-c4ccn(C(F)F)n4)cn3)n2)cn1` (stereo not shown) [Example 181, N^2-(2-(1-(Cyclopropylsulfonyl)-1H-pyrazol-4-yl)pyrimidin-4-yl)-5-(1-(difluoromethyl)-1H-pyrazol-3-yl)-N^4-(3-fluorocyclohexyl)pyridine-2,4-diamine], the IC50 was found to be 2.1 nM at EGFR L858R/T790M/C797S (setting [1]); 44.6 nM on EGFR wildtype (WT) (setting [2]); 6.7 nM at EGFR del19/C797S (setting [3]); 2.1 nM on EGFR del19/T790M/C797S (setting [4]); 13.2 nM at EGFR L858R/C797S (setting [5]).

For the molecule `Cn1nc(-c2cnc(Nc3ccnc(-c4cnn(CC(F)(F)F)c4)n3)cc2N[C@H]2CC[C@@](C)(O)CC2)cc1C(F)(F)F` [Example 329, (1s,4s)-1-Methyl-4-((5-(1-methyl-5-(trifluoromethyl)-1H-pyrazol-3-yl)-2-((2-(1-(2,2,2-trifluoroethyl)-1H-pyrazol-4-yl)pyrimidin-4-yl)amino)pyridin-4-yl)amino)cyclohexan-1-ol], the IC50 is 4.1 nM on EGFR L858R/T790M/C797S (setting [9]); 1.2 nM on EGFR L858R/T790M/C797S (setting [1]); greater than 10000 nM at EGFR wildtype (WT) (setting [6]); 288 nM on EGFR wildtype (WT) (setting [2]); 37.1 nM against EGFR del19/C797S (setting [7]); 24.6 nM on EGFR del19/C797S (setting [3]). Moreover, the IC50 was determined as 6.5 nM on EGFR del19/T790M/C797S (setting [10]), 2.5 nM on EGFR del19/T790M/C797S (setting [4]), 1140 nM at EGFR L858R/C797S (setting [8]) and 75 nM at EGFR L858R/C797S (setting [5]).

On to `Cc1nn(CC(F)(F)F)cc1-c1cc(Nc2ncc(-c3ccn(C(F)F)n3)c(N[C@H]3CC[C@@](C)(O)CC3)n2)ccn1` [Example 368, (1s,4s)-4-((5-(1-(Difluoromethyl)-1H-pyrazol-3-yl)-2-((2-(3-methyl-1-(2,2,2-trifluoroethyl)-1H-pyrazol-4-yl)pyridin-4-yl)amino)pyrimidin-4-yl)amino)-1-methylcyclohexan-1-ol], for which the IC50 came to 0.9 nM at EGFR L858R/T790M/C797S (setting [11]); 33.6 nM on EGFR wildtype (WT) (setting [12]); 12.6 nM at EGFR del19/C797S (setting [13]); 1.9 nM at EGFR del19/T790M/C797S (setting [14]); 10.7 nM at EGFR L858R/C797S (setting [15]).

For `CN(C)C[C@H]1C[C@@H](CNc2cc(Nc3ccnc(-c4cnn(S(=O)(=O)C5CC5)c4)n3)ncc2-c2ccn(C(F)F)n2)C1` [Example 203, N^2-(2-(1-(Cyclopropylsulfonyl)-1H-pyrazol-4-yl)pyrimidin-4-yl)-5-(1-(difluoromethyl)-1H-pyrazol-3-yl)-N^4-(((1s,3s)-3-((dimethylamino)methyl)cyclobutyl)methyl)pyridine-2,4-diamine], the IC50 against EGFR L858R/T790M/C797S (setting [9]) turned out to be 0.2 nM; on EGFR wildtype (WT) (setting [6]) it was 2970 nM; on EGFR del19/C797S (setting [7]) it was 1.1 nM; against EGFR del19/T790M/C797S (setting [10]) it was 0.1 nM; against EGFR L858R/C797S (setting [8]) it was 8.3 nM.

As to `CN(CC(F)F)C(=O)[C@H]1CC[C@@H](Nc2cc(Nc3ccnc(-c4cnn(S(=O)(=O)C5CC5)c4)n3)ncc2-c2ccn(C)n2)CC1` [Example 235, (1s,4s)-4-((2-((2-(1-(Cyclopropylsulfonyl)-1H-pyrazol-4-yl)pyrimidin-4-yl)amino)-5-(1-methyl-1H-pyrazol-3-yl)pyridin-4-yl)amino)-N-(2,2-difluoroethyl)-N-methylcyclohexane-1-carboxamide], the IC50 against EGFR L858R/T790M/C797S (setting [9]) was 0.2 nM; on EGFR L858R/T790M/C797S (setting [1]), 0.1 nM; against EGFR wildtype (WT) (setting [6]) it was 616 nM; on EGFR wildtype (WT) (setting [2]), 1.6 nM; against EGFR del19/C797S (setting [7]), 1.1 nM; at EGFR del19/C797S (setting [3]) it was 2.5 nM. For the same molecule, the IC50 came out at 0.2 nM on EGFR del19/T790M/C797S (setting [10]), 0.2 nM on EGFR del19/T790M/C797S (setting [4]), 7 nM on EGFR L858R/C797S (setting [8]) and 0.3 nM on EGFR L858R/C797S (setting [5]).
